Measurements from US20260250289A1, “BICYCLIC HETEROCYCLES AND THEIR USE AS WRN INHIBITORS” (Novartis AG, priority 2022, published 2026).
Where two headings read alike, the source gives them in different places.

Tests used:
[1] = target: T1, WRN helicase (aa N517-P1238) (Homo sapiens, UniProt Q14191); assay: WRN ATPase assay (DNA dependent ATP hydrolysis, ADP-Glo); format: biochemical; conditions: 3 hours pre-incubation, 300 micromolar ATP, FLAP26 DNA; geometric mean of at least 2
T1 construct: The core helicase motif of the WRN protein (aa N517-P1238) was produced for this assay; His (N); ZZ (N); 3C protease cleavage site (N); made in house; host or cells: Sf21 insect cells (baculovirus; virus and BIICs made in SF9)
T1 sequence (Q14191 517-1238): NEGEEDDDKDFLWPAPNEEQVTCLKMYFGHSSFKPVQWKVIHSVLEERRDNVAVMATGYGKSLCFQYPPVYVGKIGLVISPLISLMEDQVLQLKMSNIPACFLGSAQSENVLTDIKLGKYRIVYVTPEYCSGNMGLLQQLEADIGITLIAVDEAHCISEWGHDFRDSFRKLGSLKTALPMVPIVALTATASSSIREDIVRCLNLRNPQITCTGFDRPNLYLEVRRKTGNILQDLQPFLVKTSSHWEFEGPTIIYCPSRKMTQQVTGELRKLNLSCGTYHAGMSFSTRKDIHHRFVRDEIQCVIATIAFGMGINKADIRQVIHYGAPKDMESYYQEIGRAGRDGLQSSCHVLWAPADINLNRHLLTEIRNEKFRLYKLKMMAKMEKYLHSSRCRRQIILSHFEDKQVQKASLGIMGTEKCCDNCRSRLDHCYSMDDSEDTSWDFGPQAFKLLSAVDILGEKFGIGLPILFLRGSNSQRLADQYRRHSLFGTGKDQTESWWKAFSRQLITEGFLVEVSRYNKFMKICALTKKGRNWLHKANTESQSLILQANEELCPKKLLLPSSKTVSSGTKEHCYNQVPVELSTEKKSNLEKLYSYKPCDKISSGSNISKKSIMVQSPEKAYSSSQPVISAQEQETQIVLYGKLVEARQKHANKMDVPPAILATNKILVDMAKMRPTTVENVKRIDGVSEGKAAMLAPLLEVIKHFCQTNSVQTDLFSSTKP
In short: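 DNA-dependent ATP hydrolysis detected as ADP by ADP-Glo luminescence, using 300 μM ATP, 0.2 nM FLAP26 substrate and 10 nM WRN aa N517-P1238 (Tris pH 7.5 buffer, 2 mM MgCl2, 50 mM NaCl). IC50s fitted from normalized duplicate half-log dilutions; reported as geometric means of at least 2 replicates.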

SW48 cells = assay: Proliferation assay SW48 (CellTiterGlo); format: cell-based; conditions: SW48 colon carcinoma cells, 96 hours, CellTiterGlo, geometric mean of at least 2, read-out: Proliferation Assay SW48 GI50
In short: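 Read-out is CellTiterGlo luminescence after 96 hours of compound exposure, with % growth calculated against day-0 and vehicle-treated ATP levels. SW48 seeded at 2,000 cells/well, dosed next day with eight 3-fold serial dilutions, 0.1% DMSO. GI50 reported as geometric mean, at least 2 replicates.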

DLD1-WRN-KO cells = assay: Proliferation assay DLD1-WRN-KO (CellTiterGlo, off-target effects); format: cell-based; conditions: 96 hours, geometric mean of at least 2
In short: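 DLD1 cells with CRISPR knockout of WRN were exposed overnight-seeded to eight 3-fold compound dilutions (0.1% DMSO) for 96 h at 37 °C. Viability was read as ATP by CellTiterGlo luminescence against a day-0 plate, giving GI50 and residual viability at top concentration.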

Compound | IC50 [1] | GI50 (SW48 cells; Homo sapiens, SW48, 96 h) | GI50 (DLD1-WRN-KO cells) | GI50 (SW48 cells)
CC(=O)N1CCN(c2c(C)n(CC(=O)Nc3ccc(C(F)(F)F)cc3)c3nc(C4=CCN(CC(F)F)CC4)nn3c2=O)CC1 [Example 119, 2-(6-(4-acetylpiperazin-1-yl)-2-(1-(2,2-difluoroethyl)-1,2,3,6-tetrahydropyridin-4-yl)-5-methyl-7-oxo-[1,2,4]triazolo[1,5-a]pyrimidin-4(7H)-yl)-N-(4-(trifluoromethyl)phenyl)acetamide] | 600 nM | 6000 nM | > 10000 nM | 
CC(=O)N1CCN(c2c(C)n(CC(=O)Nc3cc(Cl)c(C)cc3Cl)c3nc(C4=CCOCC4)nn3c2=O)CC1 [Example 100, 2-(6-(4-acetylpiperazin-1-yl)-2-(3,6-dihydro-2H-pyran-4-yl)-5-methyl-7-oxo-[1,2,4]triazolo[1,5-a]pyrimidin-4(7H)-yl)-N-(2,5-dichloro-4-methylphenyl)acetamide] | 2000 nM | 4000 nM | > 10000 nM | 
Cc1c(N2CCN(C(=O)c3c(O)cccc3Cl)CC2)c(=O)n2nc(C3=CCOCC3)nc2n1CC(=O)Nc1ccc(C(F)(F)F)cc1 [Example 149, 2-(6-(4-(2-chloro-6-hydroxybenzoyl)piperazin-1-yl)-2-(3,6-dihydro-2H-pyran-4-yl)-5-methyl-7-oxo-[1,2,4]triazolo[1,5-a]pyrimidin-4(7H)-yl)-N-(4-(trifluoromethyl)phenyl)acetamide] | 90 nM | 2000 nM | > 10000 nM | 
Cc1c(N2CCN(C(=O)c3cncc(F)c3O)CC2)c(=O)n2nc(C3=CCOCC3)nc2n1CC(=O)Nc1ccc(C(F)(F)F)cc1 [Example 22, 2-(2-(3,6-dihydro-2H-pyran-4-yl)-6-(4-(5-fluoro-4-hydroxynicotinoyl)piperazin-1-yl)-5-methyl-7-oxo-[1,2,4]triazolo[1,5-a]pyrimidin-4(7H)-yl)-N-(4-(trifluoromethyl)phenyl)acetamide] | 100 nM | > 10000 nM | > 10000 nM | 
CCc1c(N2CCN(C(=O)c3ccn4ccnc4c3O)CC2)c(=O)n2nc(C3=CCOCC3)nc2n1CC(=O)Nc1ccc(C(F)(F)F)cc1C [Example 43, 2-(2-(3,6-dihydro-2H-pyran-4-yl)-5-ethyl-6-(4-(8-hydroxyimidazo[1,2-a]pyridine-7-carbonyl)piperazin-1-yl)-7-oxo-[1,2,4]triazolo[1,5-a]pyrimidin-4(7H)-yl)-N-(2-methyl-4-(trifluoromethyl)phenyl)acetamide] | 80 nM | 1000 nM | > 10000 nM | 
CC(=O)N1CCN(c2c(C)n(CC(=O)Nc3ccc(S(F)(F)(F)(F)F)cc3C)c3nc(C4=CCOCC4)nn3c2=O)CC1 [Example 62, 2-(6-(4-acetylpiperazin-1-yl)-2-(3,6-dihydro-2H-pyran-4-yl)-5-methyl-7-oxo-[1,2,4]triazolo[1,5-a]pyrimidin-4(7H)-yl)-N-(2-methyl-4-(pentafluoro-l6-sulfaneyl)phenyl)acetamide] | 500 nM | 1000 nM | > 10000 nM | 
Cc1c(N2CCN(C(=O)c3cnccc3O)CC2)c(=O)n2nc(N3CCOCC3)nc2n1CC(=O)Nc1ccc(C(F)(F)F)cc1 [Example 152, 2-(5-methyl-2-morpholino-7-oxo-6-(4-(4-oxo-1,4-dihydropyridine-3-carbonyl)piperazin-1-yl)-[1,2,4]triazolo[1,5-a]pyrimidin-4(7H)-yl)-N-(4-(trifluoromethyl)phenyl)acetamide] | 500 nM | > 10000 nM | > 10000 nM | 
CCc1ccc(NC(=O)Cn2c(C)c(N3CCN(C(C)=O)CC3)c(=O)n3nc(C4=CCOCC4)nc23)cc1F [Example 92, 2-(6-(4-acetylpiperazin-1-yl)-2-(3,6-dihydro-2H-pyran-4-yl)-5-methyl-7-oxo-[1,2,4]triazolo[1,5-a]pyrimidin-4(7H)-yl)-N-(4-ethyl-3-fluorophenyl)acetamide] | 700 nM | 4000 nM | > 10000 nM | 
CCc1c(N2CCN(C(=O)c3ncn(C)c3O)CC2)c(=O)n2nc(C3=CCOCC3)nc2n1CC(=O)Nc1ccc(C(F)(F)F)cc1Cl [Example 67, N-(2-chloro-4-(trifluoromethyl)phenyl)-2-(2-(3,6-dihydro-2H-pyran-4-yl)-5-ethyl-6-(4-(5-hydroxy-1-methyl-1H-imidazole-4-carbonyl)piperazin-1-yl)-7-oxo-[1,2,4]triazolo[1,5-a]pyrimidin-4(7H)-yl)acetamide] | 300 nM | 3000 nM | > 10000 nM | 
CCc1c(N2CCN(C(=O)C3CCOC3)CC2)c(=O)n2nc(C3=CCCCO3)nc2n1CC(=O)Nc1ccc(C(F)(F)F)cc1 (stereo not drawn) [Example 60, 2-(2-(3,4-dihydro-2H-pyran-6-yl)-5-ethyl-7-oxo-6-(4-(tetrahydrofuran-3-carbonyl)piperazin-1-yl)-[1,2,4]triazolo[1,5-a]pyrimidin-4(7H)-yl)-N-(4-(trifluoromethyl)phenyl)acetamide] | 300 nM |  | > 10000 nM | 3000 nM
CC(=O)N1CCN(c2c(C)n(CC(=O)Nc3cc(F)c(Cl)cc3Cl)c3nc(C4=CCOCC4)nn3c2=O)CC1 [Example 97, 2-(6-(4-acetylpiperazin-1-yl)-2-(3,6-dihydro-2H-pyran-4-yl)-5-methyl-7-oxo-[1,2,4]triazolo[1,5-a]pyrimidin-4(7H)-yl)-N-(2,4-dichloro-5-fluorophenyl)acetamide] | 1000 nM | 4000 nM | > 10000 nM | 
CC(=O)N1CCN(c2c(C)n(CC(=O)Nc3ccc(C(F)(F)F)cc3)c3nc(-c4ccccn4)nn3c2=O)CC1 [Example 115, 2-(6-(4-acetylpiperazin-1-yl)-5-methyl-7-oxo-2-(pyridin-2-yl)-[1,2,4]triazolo[1,5-a]pyrimidin-4(7H)-yl)-N-(4-(trifluoromethyl)phenyl)acetamide] | 500 nM | 2000 nM | 5000 nM | 
CCc1c(N2CCN(C(=O)c3ccc(Cl)c(F)c3O)CC2)c(=O)n2nc(C3=CCOCC3)nc2n1CC(=O)Nc1ccc(C(F)(F)F)cc1C [Example 45, 2-(6-(4-(4-chloro-3-fluoro-2-hydroxybenzoyl)piperazin-1-yl)-2-(3,6-dihydro-2H-pyran-4-yl)-5-ethyl-7-oxo-[1,2,4]triazolo[1,5-a]pyrimidin-4(7H)-yl)-N-(2-methyl-4-(trifluoromethyl)phenyl)acetamide] | 90 nM | 300 nM | > 10000 nM | 
CC(=O)N1CCN(c2c(C)n(CC(=O)Nc3ccc(S(F)(F)(F)(F)F)cc3Cl)c3nc(C4=CCOCC4)nn3c2=O)CC1 [Example 73, 2-(6-(4-acetylpiperazin-1-yl)-2-(3,6-dihydro-2H-pyran-4-yl)-5-methyl-7-oxo-[1,2,4]triazolo[1,5-a]pyrimidin-4(7H)-yl)-N-(2-chloro-4-(pentafluoro-l6-sulfaneyl)phenyl)acetamide] | 100 nM | 2000 nM | > 10000 nM | 
CCc1c(N2CCN(C(=O)c3c(O)ccc4cccnc34)CC2)c(=O)n2nc(C3=CCOCC3)nc2n1CC(=O)Nc1ccc(C(F)(F)F)cc1 [Example 14, 2-(2-(3,6-dihydro-2H-pyran-4-yl)-5-ethyl-6-(4-(7-hydroxyquinoline-8-carbonyl)piperazin-1-yl)-7-oxo-[1,2,4]triazolo[1,5-a]pyrimidin-4(7H)-yl)-N-(4-(trifluoromethyl)phenyl)acetamide] | 40 nM | 200 nM | > 10000 nM | 
